SMILES strings stand for the structures. Values after ≈ are worked out from the molar mass of the structure shown. Structures can show the parent of a compound that is named as a salt.

The values that follow come from US8653138B2, “Calcium salts of compounds as anti-inflammatory, immunomodulatory and anti-proliferatory agents” (4SC MG, priority 2010, dated 2014).

The nature of series [1]: Dynamic vapor sorption (DVS). Type of series: physicochemical. From the text:
DVS (SMS): Surface Measurement Systems Ltd. DVS-1 water vapour sorption analyzer. The sample is placed on a platinum sample pan and allowed to equilibrate at a given relative humidity (r.h.), usually 50% r.h. Then, a pre-defined humidity program was started with a scanning rate of 5% r.h. change per hour. First step: from 50% r.h. to 0% r.h, (in case of a possibly hydrate as starting material 50 to 95% r.h.), second step: from 0% to 95% r.h. (in case of a possibly hydrate as starting material 95 to 0% r.h.)

A short description of series [2]: Aqueous solubility (OECD Guideline 105). It is filed as physicochemical. The settings on record: water, 24 h at 23° C., HPLC-UV. Here is the method:
Aqueous solubilities of Vidofludimus free acid (2-(3-Fluoro-3′-methoxybiphenyl-4-ylcarbamoyl)-cyclopent-1-enecarboxylic acid), its potassium salt and its Calcium salt were examined. The principle of the method was based on the OECD Guideline for the testing of chemicals, 105 “Water Solubility”. 2 mg of the experimental compounds were weighed into Eppendorf vials of 1.5 ml. Subsequently, water was added to arrive at a concentration of 5 mg/ml. After preparation of the solubility samples they were incubated for 24 h at 23° C. under continuous shaking. Then the samples were centrifuged to separate the precipitate from the dissolved compound. The supernatants were transferred into labelled HPLC vials for quantification by HPLC-UV. Finally, these HPLC samples were analysed on the HPLC-UV System and their contents were calculated from the calibration curves, The concentration of compound in the supernatant equals its solubility in water. The following aqueous solubilities were found for Vidofludimus free acid and its potassium-and calcium salt: […]

Series [3] concerns the target T1, recombinant human DHODH (Homo sapiens, UniProt Q02127).
T1 construct: provided by Prof; M. Löffler, Marburg, Germany (gift, not a commercial vendor)
The series is described as follows: Inhibition assay of DHODH activity, human enzyme. The following applies: class symbol (head prints μM, key in nM). Type of series: biochemical. Here is the method:
The standard assay mixture contained 50 μM decyclo ubichinone, 100 μM dihydroorotate, 60 μM 2,6-dichloroindophenol, as well as 20 mU DHODH. The volume activity of the recombinant enzyme used was 30 U/ml. Measurements were conducted in 50 mM TrisHCl (150 mM KCl, 0.1% Triton X-100, pH 8.0) at 30° C. in a final volume of 1 ml. The components were mixed, and the reaction was started by adding dihydroorotate. The course of reaction was followed by spectrophotometrically measuring the decrease in absorption at 600 nm for 2 min.
Inhibitory studies were conducted in a standard assay with additional variable amounts of inhibitor.
These investigations were carried out with recombinant human as well as with recombinant murine DHODH provided by Prof. M. Löffler, Marburg, Germany [M. Löffler, Chem. Biol. Interact.

T1 sequence (Q02127 whole entry): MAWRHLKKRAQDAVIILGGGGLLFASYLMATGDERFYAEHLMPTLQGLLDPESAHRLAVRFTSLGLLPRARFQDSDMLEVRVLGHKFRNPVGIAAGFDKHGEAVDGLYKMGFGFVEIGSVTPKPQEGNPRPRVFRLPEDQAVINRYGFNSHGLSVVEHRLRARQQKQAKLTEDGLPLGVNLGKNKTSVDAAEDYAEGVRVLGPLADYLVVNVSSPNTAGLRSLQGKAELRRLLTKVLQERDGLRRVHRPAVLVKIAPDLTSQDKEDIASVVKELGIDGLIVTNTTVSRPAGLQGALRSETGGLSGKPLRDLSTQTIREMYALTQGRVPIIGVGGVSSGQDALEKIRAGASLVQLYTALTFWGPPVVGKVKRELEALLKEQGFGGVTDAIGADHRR

What is called Solubility is the concentration that dissolves in the medium under given conditions. In the case of `COc1cccc(-c2ccc(NC(=O)C3=C(C(=O)O)CCC3)c(F)c2)c1` [Calcium salt, calcium salt of 2-(3-Fluoro-3′-methoxy-biphenyl-4-ylcarbamoyl)-cyclopent-1-enecarboxylic acid], the water uptake in series [1] (at 95% r.h. (not reversible)) was 0.4%; in series [1] (at about 85% r.h., after desolvation), 0.3%. In series [2], this compound displayed a Solubility of 16.2 µg/mL.
The compound `COc1cccc(-c2ccc(NC(=O)C3=C(C(=O)O)CCC3)c(F)c2)c1` [Compound 26, 2-((3-fluoro-3′-methoxy-[1,1′-biphenyl]-4-yl)carbamoyl)cyclopent-1-enecarboxylic acid] came in with a Solubility in series [2] (listed as Vidofludimus free acid) of 9.5 µg/mL (≈ 26.7 µM).
As usually defined, the IC50 is the concentration that gives 50% inhibition. Regarding `O=C(O)C1=C(C(=O)Nc2c(F)cc(-c3ccccc3F)cc2F)CCC1` [Compound 66, 2-((2′,3,5-trifluoro-[1,1′-biphenyl]-4-yl)carbamoyl)cyclopent-1-enecarboxylic acid], the IC50 in series [3] was below 0.8 µM.
On the same count and under the same terms, the same measure for `COc1ccc(-c2cc(F)c(NC(=O)C3=C(C(=O)O)CCC3)c(F)c2)c(OC)c1` [Compound 67, 2-((3,5-difluoro-2′,4′-dimethoxy-[1,1′-biphenyl]-4-yl)carbamoyl)cyclopent-1-enecarboxylic acid]: below 0.8 µM.
In the case of `O=C(O)C1=C(C(=O)Nc2ccc(OCc3ccccc3C(F)(F)F)c(Cl)c2)CCC1` [Compound 68], in series [3], the IC50 was below 0.8 µM.
For `O=C(O)C1=C(C(=O)Nc2ccc(OCc3ccccc3)c(Cl)c2)CCC1` [Compound 72], the IC50 in series [3] was below 0.8 µM.
In the case of `O=C(O)C1=C(C(=O)Nc2ccc(OCc3ccccc3F)c(Cl)c2)CCC1` [Compound 74, 2-((3-chloro-4-((2-fluorobenzyl)oxy)phenyl)carbamoyl)cyclopent-1-enecarboxylic acid], the IC50 in series [3] was below 0.8 µM.
In the case of `COc1ccccc1-c1ccc(OC(=O)C2=C(C(=O)O)CCC2)c(F)c1` [Compound 76], in series [3], the IC50 is below 0.8 µM.
Turning to `COc1cccc(-c2ccc(NC(=O)C3=C(C(=O)O)CCC3)c(F)c2)c1` [Potassium salt], the Solubility in series [2] amounted to 4700 µg/mL.
